The record followed here is patent US9790221B2, “Heteroaryl compounds as IRAK inhibitors and uses thereof” (Merck Patent GmbH, priority 2014, dated 2017).

Bounds are passed on as bounds.

Assay [1] addresses IRAK4 (Homo sapiens (Human), UniProt Q9NWZ3). The experiment in a line: IRAK4 enzymatic assay. It counts as biochemical. A digest of the protocol:
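Radiometric streptavidin FlashPlate read: 3 h, 30° C incubation of His-TEV-IRAK4 (20 ng/well), STK1-biotin substrate (300 nM) and ATP (2 μM, [^33P]-labelled) in Hepes pH 7.0, MgCl2 10 mM, MnCl2 5 mM. Compounds from 20 µM down to 1 nM, 2% DMSO controls; reaction quenched with EDTA.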

The target in assay [2] is IRAK1 (His-TEV-IRAK1 (194-712)) (Homo sapiens (Human), UniProt P51617). The assay is described as follows: IRAK1 enzymatic assay. Type of assay: biochemical. A digest of the protocol: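 Compounds ([…] down to 1 nM) were incubated 3 h at 30° C with His-TEV-IRAK1 (194-712, 15 ng/well) and 1 μM [33P]-labelled ATP in 50 mM Hepes pH 7.0, 10 mM MgCl2. After EDTA stop and washing, the retained autophosphorylation signal was measured by scintillation in streptavidin-coated plates.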
Chain of IRAK1 (His-TEV-IRAK1 (194-712)) (P51617 194-712): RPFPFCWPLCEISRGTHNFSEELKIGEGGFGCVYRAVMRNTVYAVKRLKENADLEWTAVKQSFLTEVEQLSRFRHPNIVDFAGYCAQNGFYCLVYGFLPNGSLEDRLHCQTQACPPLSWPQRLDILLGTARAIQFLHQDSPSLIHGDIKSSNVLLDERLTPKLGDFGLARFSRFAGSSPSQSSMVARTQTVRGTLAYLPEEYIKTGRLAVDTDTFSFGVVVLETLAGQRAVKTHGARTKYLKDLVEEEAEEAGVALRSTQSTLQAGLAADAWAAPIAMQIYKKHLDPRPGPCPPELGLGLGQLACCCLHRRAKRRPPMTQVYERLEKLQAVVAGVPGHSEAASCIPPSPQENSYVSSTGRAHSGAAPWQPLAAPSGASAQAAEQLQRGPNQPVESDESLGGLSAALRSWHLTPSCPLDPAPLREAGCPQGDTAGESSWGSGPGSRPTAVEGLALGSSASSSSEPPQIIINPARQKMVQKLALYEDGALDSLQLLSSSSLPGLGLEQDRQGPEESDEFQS

The test system of assay [3] is TLR7 induced IL-6 secretion in human mononuclear cells (PBMC's). The assay is described as follows: TLR7 induced IL-6 in human PBMC's. It counts as cell-based. Conditions: Homo sapiens, PBMC, read-out: TLR7 induced IL-6 secretion in hPBMC's (IC50). A digest of the protocol:
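Fresh or frozen healthy-donor PBMCs preincubated 30 min at 37° C. with compound (25 uM to 0.4 nM; vehicle 0.25% DMSO) in RPMI/10% HI-FBS. Stimulated with TLR7 ligand (2 uM) for 16-18 h at 37° C.; supernatant IL-6 measured by AlphaLISA.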

Chain of IRAK4 (Q9NWZ3 whole entry): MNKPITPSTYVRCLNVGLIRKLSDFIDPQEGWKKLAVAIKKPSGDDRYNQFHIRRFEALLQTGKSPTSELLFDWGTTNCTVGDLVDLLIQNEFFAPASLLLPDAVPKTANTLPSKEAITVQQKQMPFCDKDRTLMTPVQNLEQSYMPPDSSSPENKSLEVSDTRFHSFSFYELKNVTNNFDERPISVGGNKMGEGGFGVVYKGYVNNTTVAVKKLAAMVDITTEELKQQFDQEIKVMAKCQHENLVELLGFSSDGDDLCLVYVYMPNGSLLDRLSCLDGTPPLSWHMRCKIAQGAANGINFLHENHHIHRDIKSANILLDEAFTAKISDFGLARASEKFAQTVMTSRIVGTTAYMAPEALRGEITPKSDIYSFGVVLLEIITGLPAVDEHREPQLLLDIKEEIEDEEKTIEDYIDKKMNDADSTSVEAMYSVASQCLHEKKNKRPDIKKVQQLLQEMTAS

One may read the IC50 as the concentration that inhibits the measured activity by half. Turning to `Cn1cc(-c2cccc(-c3ncc(-c4cnn(C)c4)c(N[C@H]4CC[C@H](N)CC4)n3)c2)cn1` [Example 143], the IC50 is under 100 nM in assay [1], 100 to 1000 nM in assay [2] and 100 to 1000 nM in assay [3].
`Cc1nnc(-c2cnc(-c3cccc(-c4cnn(C)c4)c3)nc2NCCN2CCOCC2)s1` [Example 146]: the IC50 in assay [1] was under 100 nM; in assay [2] it was over 5000 nM; in assay [3] it was 1000 to 5000 nM.
In the same order, the values of `Cn1cc(-c2cccc(-c3ncc(-c4cnn(C)c4)c(N[C@H]4CC[C@H](O)CC4)n3)c2)cn1` [Example 149] are under 100 nM, 100 to 1000 nM and 100 to 1000 nM.
In the same order, the values of `Cn1cc(-c2cccc(-c3ncc(-c4ccn(C)n4)c(NC4C5CCCC4CC(N)C5)n3)c2)cn1` (stereo not drawn) [Example 152] are under 100 nM, 100 to 1000 nM and 100 to 1000 nM.
In the same order, the values of `Cn1cc(-c2cccc(-c3ncc(-c4cnn(C)c4)c(NC4C5CCCC4CC(N)C5)n3)c2)cn1` (stereo not drawn) [Example 153] are under 100 nM, 100 to 1000 nM and 100 to 1000 nM.
Consider `Cn1cc(-c2cccc(-c3ncc(-c4cnn(C)c4)c(NC[C@H]4CC[C@H](O)CC4)n3)c2)cn1` [Example 156], for which the half-inhibitory concentration (IC50) in assay [1] was under 100 nM; in assay [2], 100 to 1000 nM; in assay [3], 100 to 1000 nM.
As to `Cn1cc(-c2cccc(-c3ncc(-c4cnn(C)c4)c(NC4CC5(CCN(S(C)(=O)=O)C5)C4)n3)c2)cn1` (stereo not drawn) [Example 169], the half-inhibitory concentration (IC50) in assay [1] was under 100 nM; in assay [2] it was 100 to 1000 nM; in assay [3], over 5000 nM.
For `Cn1cc(-c2cccc(-c3ncc(-c4cnn(C)c4)c(N[C@@H]4CCN(S(C)(=O)=O)C4)n3)c2)cn1` [Example 171], in that order: under 100 nM, under 100 nM and 1000 to 5000 nM.
In the same order, the values of `Cn1cc(-c2cccc(-c3ncc(-c4cnn(C)c4)c(NCCCNS(C)(=O)=O)n3)c2)cn1` [Example 179] are under 100 nM, 100 to 1000 nM and 1000 to 5000 nM.
In the same order, the values of `Cn1cc(-c2cccc(-c3ncc(-c4cnn(C)c4)c(NCC4CC(O)C4)n3)c2)cn1` (stereo not drawn) [Example 181] are under 100 nM, 100 to 1000 nM and 1000 to 5000 nM.
In the case of `Cn1cc(-c2cccc(-c3ncc(-c4cnn(C)c4)c(N[C@H]4CC[C@H](NS(C)(=O)=O)CC4)n3)c2)cn1` [Example 182], the values for the half-inhibitory concentration (IC50) in assay [1], in assay [2] and in assay [3] were under 100 nM, under 100 nM and 100 to 1000 nM, respectively.
As to `Cn1cc(-c2cccc(-c3ncc(-c4cnn(C)c4)c(N[C@H]4C[C@@H](NS(C)(=O)=O)C4)n3)c2)cn1` [Example 183], the values for the IC50 in assay [1], in assay [2] and in assay [3] were under 100 nM, 100 to 1000 nM and 1000 to 5000 nM, respectively.
On to `Cc1nnc(-c2cnc(-c3cccc(-c4cnn(C)c4)c3)nc2NCCNS(C)(=O)=O)s1` [Example 184], for which the IC50 in assay [1] was under 100 nM; in assay [2], 100 to 1000 nM; in assay [3], 100 to 1000 nM.
For the molecule `Cn1cc(-c2cccc(-c3ncc(-c4cnn(C)c4)c(N[C@H]4CC[C@H](N)C4)n3)c2)cn1` [Example 185], the half-maximal inhibitory concentration (IC50) in assay [1] is under 100 nM; in assay [2] it was 1000 to 5000 nM; in assay [3], 1000 to 5000 nM.
`Cn1cc(-c2cccc(-c3ncc(-c4cnn(C)c4)c(NC45CCC(N)(CC4)CC5)n3)c2)cn1` [Example 186]: the half-inhibitory concentration (IC50) in assay [1] was under 100 nM; in assay [2] it was under 100 nM; in assay [3], 100 to 1000 nM.
`Cn1cc(-c2cccc(-c3ncc(-c4cnn(C)c4)c(NC45CCC(NS(C)(=O)=O)(CC4)CC5)n3)c2)cn1` [Example 187]: the IC50 is under 100 nM in assay [1], under 100 nM in assay [2] and 100 to 1000 nM in assay [3].
With `Cn1cc(-c2cccc(-c3ncc(-c4cnn(C)c4)c(NC4CC(CN)C4)n3)c2)cn1` (stereo not drawn) [Example 188], the IC50 in assay [1] is under 100 nM; in assay [2], under 100 nM; in assay [3], 1000 to 5000 nM.
As for `Cn1cc(-c2cccc(-c3ncc(-c4cnn(C)c4)c(N[C@H]4CC[C@H](NS(C)(=O)=O)C4)n3)c2)cn1` [Example 190], the IC50 was under 100 nM in assay [1], under 100 nM in assay [2] and 1000 to 5000 nM in assay [3].
Turning to `Cn1cc(-c2cccc(-c3ncc(-c4cnn(C)c4)c(NC4CCC(CN)CC4)n3)c2)cn1` (stereo not drawn) [Example 194], the half-inhibitory concentration (IC50) was under 100 nM in assay [1], 100 to 1000 nM in assay [2] and 100 to 1000 nM in assay [3].
`Cn1cc(-c2cccc(-c3ncc(-c4cnn(C)c4)c(N[C@H]4C[C@@H](CNS(C)(=O)=O)C4)n3)c2)cn1` [Example 195, N-(3-{5-(1-Methyl-1H-pyrazol-4-yl)-2-[3-(1-methyl-1H-pyrazol-4-yl)-phenyl]-pyrimidin-4-ylamino}-cyclobutylmethyl)-methanesulfonamide]: the half-inhibitory concentration (IC50) was under 100 nM in assay [1], under 100 nM in assay [2] and 1000 to 5000 nM in assay [3].
For the molecule `Cn1cc(-c2cccc(-c3ncc(-c4cnn(C)c4)c(N[C@H]4C[C@H](CNS(C)(=O)=O)C4)n3)c2)cn1` [Example 196, N-(3-{5-(1-Methyl-1H-pyrazol-4-yl)-2-[3-(1-methyl-1H-pyrazol-4-yl)-phenyl]-pyrimidin-4-ylamino}-cyclobutylmethyl)-methanesulfonamide], the IC50 in assay [1] lay within 100 to 1000 nM; in assay [2], 100 to 1000 nM; in assay [3], 1000 to 5000 nM.
Consider `Cn1cc(-c2cccc(-c3ncc(-c4cnn(C)c4)c(NC4CC5CCC4N5S(C)(=O)=O)n3)c2)cn1` (stereo not drawn) [Example 199], for which the IC50 was under 100 nM in assay [1], 100 to 1000 nM in assay [2] and 100 to 1000 nM in assay [3].
In the case of `Cn1cc(-c2cccc(-c3ncc(-c4cnn(C)c4)c(N[C@H]4CCC[C@H](O)[C@@H]4O)n3)c2)cn1` [Example 208, (1S,2R,3S)-3-{5-(1-Methyl-1H-pyrazol-4-yl)-2-[3-(1-methyl-1H-pyrazol-4-yl)-phenyl]-pyrimidin-4-ylamino}-cyclohexane-1,2-diol], the IC50 was under 100 nM in assay [1], 100 to 1000 nM in assay [2] and 100 to 1000 nM in assay [3].
Consider `Cc1nnc(-c2cnc(-c3cccc(-c4cnn(C)c4)c3)nc2NC2CCC(NS(=O)(=O)C3CC3)CC2)s1` (stereo not drawn) [Example 209], for which the IC50 in assay [1] was under 100 nM; in assay [2], under 100 nM; in assay [3], 100 to 1000 nM.
Take `CC(C)Nc1nc(-c2cccc(-c3cnn(C)c3)c2)ncc1-c1nnc(C2CCNCC2)s1` [Example 210]: the IC50 was under 100 nM in assay [1], 100 to 1000 nM in assay [2] and 100 to 1000 nM in assay [3].
Take `CC(=O)NC[C@H]1C[C@@H](Nc2nc(-c3cccc(-c4cnn(C)c4)c3)ncc2-c2cnn(C)c2)C1` [Example 211, N-(3-{5-(1-Methyl-1H-pyrazol-4-yl)-2-[3-(1-methyl-1H-pyrazol-4-yl)-phenyl]-pyrimidin-4-ylamino}-cyclobutylmethyl)-acetamide]: the concentration for half-maximal inhibition (IC50) was 100 to 1000 nM in assay [1], 100 to 1000 nM in assay [2] and 1000 to 5000 nM in assay [3].
In the case of `Cn1cc(-c2cccc(-c3ncc(-c4cnn(C)c4)c(NCCCS(C)(=O)=O)n3)c2)cn1` [Example 213], the half-inhibitory concentration (IC50) was under 100 nM in assay [1], under 100 nM in assay [2] and 100 to 1000 nM in assay [3].
For `Cc1nnc(-c2cnc(-c3cccc(-c4cnn(C)c4)c3)nc2NC2CCC(F)(F)CC2)s1` [Example 214], the half-maximal inhibitory concentration (IC50) in assay [1] is under 100 nM; in assay [2] it was over 5000 nM; in assay [3], 1000 to 5000 nM.
In the same order, the values of `Cc1ccc(-c2cnc(-c3cccc(-c4cnn(C)c4)c3)nc2NC2CCN(S(C)(=O)=O)CC2)cn1` [Example 215] are under 100 nM, 100 to 1000 nM and 100 to 1000 nM.
For `Cc1nnc(-c2cnc(-c3cccc(-c4cnn(C)c4)c3)nc2NCC(O)C(F)(F)F)s1` (stereo not drawn) [Example 216], in that order: under 100 nM, 100 to 1000 nM and 100 to 1000 nM.
In the same order, the values of `Cn1cc(-c2cccc(-c3ncc(-c4cnn(C)c4)c(NCC4CCCOC4)n3)c2)cn1` (stereo not drawn) [Example 217] are under 100 nM, 100 to 1000 nM and 1000 to 5000 nM.
Consider `Cn1cc(-c2cccc(-c3ncc(-c4cnn(C)c4)c(N4CCC(O)CC4)n3)c2)cn1` [Example 219], for which the IC50 is under 100 nM in assay [1], 100 to 1000 nM in assay [2] and 1000 to 5000 nM in assay [3].
For `Cn1cc(-c2cccc(-c3ncc(-c4cnn(C)c4)c(N[C@H]4CC[C@@H](O)CC4)n3)c2)cn1` [Example 221], in that order: under 100 nM, 100 to 1000 nM and 100 to 1000 nM.
For `Cn1cc(-c2cccc(-c3ncc(-c4cnn(C)c4)c(NC[C@H]4CCCC[C@H]4O)n3)c2)cn1` [Example 225], in that order: under 100 nM, 100 to 1000 nM and 100 to 1000 nM.
In the same order, the values of `Cn1cc(-c2cccc(-c3ncc(-c4cnn(C)c4)c(N[C@H]4CC[C@@H](N5CCOCC5)CC4)n3)c2)cn1` [Example 233] are under 100 nM, 100 to 1000 nM and 100 to 1000 nM.
As to `Cn1cc(-c2cccc(-c3ncc(-c4cnn(C)c4)c(NC4CCCC4O)n3)c2)cn1` (stereo not drawn) [Example 238], the figures for the IC50 in assay [1], in assay [2] and in assay [3] were under 100 nM, 100 to 1000 nM and 100 to 1000 nM, respectively.
